These results are taken from patent publication US7285564B2, “Substituted 4-amino-1-(pyridylmethyl)piperidine and related compounds” (Theravance, Inc., priority 2002, dated 2007).

The structures appear in SMILES notation.

The test system of this experiment is oxotremorine-induced salivation. Description: In vivo rat salivation assay. Particulars: rat bladder assay vs rat salivation assay. On the procedure: Female Sprague-Dawley rats weighing 200 to 300 g were anesthetized with urethane (1.5 g/kg, s.c., Sigma, St. Louis, Mo.), with a supplement of 0.25 g/kg, s.c. urethane as needed. Urethane was administered at a concentration of 0.25 g/mL.
Rats were placed on a heated blanket on their dorsal side in an inclined position (20° angle) position (head down). A swab was placed in the rat's mouth. The test compound or vehicle was administered intravenously via the tail vein. After 5 min., oxotremorine (1.0 mg/kg) was administered subcutaneously. The swab was discarded and
Replaced by a pre-weighed swab. Saliva was then collected for 10 min. and then the swab was removed and re-weighed to determine the output of saliva. Dose-response curves were fitted with a four parameter logistic equation to obtain estimates of ID50 (dose required to produce 50% of the maximal response).
By comparing the ID50 values determined in the rat bladder assay and rat salivation assay, the in vivo bladder/salivation selectivity ratio was calculated for the compounds tested.

Turning to `CCN(CC)CC#CCOC(=O)C(O)(c1ccccc1)C1CCCCC1` (centres unmarked) [oxybutynin, reference compound], the “ID50 bladder/salivation selectivity ratio” value is “about 1.4”.
Consider `Cc1ccc(O)c([C@H](CCN(C(C)C)C(C)C)c2ccccc2)c1` [tolterodine, reference compound], for which the “ID50 bladder/salivation selectivity ratio” value was about 4.8.
